Key:
Aphis craccivora = test: Insecticidal activity against Aphis craccivora by immersing (mortality after 24 hours); type: in vivo; conditions: for Mortality (%) (500 ppm) Aphis craccivora: in vivo; for mortality at 500 ppm: Aphis craccivora, 24 h, read-out: Mortality (%) (500 ppm) Aphis craccivora
Protocol: Aphis, which belongs to Homoptera and has a piercing-sucking mouthpart, is a common insect for agricultural plant. Aphis craccivora was tested by the way of immersing.
Test method: exactly weighed various samples were independently added to N,N-dimethylformamide to form a 10 g/L stock solution. The mixture was diluted with 0.2 mL/L aqueous Triton X-100 solution to a concentration of 500 ug/mL. After stably sucking on bean sprout, the adult aphis without wings together with bean sprout was dipped into the dilution of 500 ug/mL, 100 ug/mL, 50 ug/mL, 25 ug/mL, 12.5 ug/mL, 6.25 ug/mL (LD50 was calculated), taken out after 5 seconds, and the excess dilution was sucked out with bibulous paper and the adult aphis without wings was incubated in clean vessel at a constant temperature of 23° C. Each concentration was repeated for 3 times and the control group contained 0.2 mL/L aqueous Triton X-100 solution. The number of killed aphis was counted after 24 hours to calculate the mortality.

Nilaparvata lugens = test: Insecticidal activity against Nilaparvata lugens by spraying (mortality after 24 hours); type: in vivo; conditions: for Mortality (%) (500 ppm) Nilaparvata lugens: spraying 2 ml, counted after 24 hours; for mortality at 500 ppm: Nilaparvata lugens, 24 h, read-out: Mortality (%) (500 ppm) Nilaparvata lugens
Protocol: Plant hopper, which belongs to Homoptera and has a piercing-sucking mouthpart, is a common insect for agricultural plant. Nilaparvata lugens was tested by the way of spraying.
Test method: the compound to be tested was exactly formulated into a solution having a certain concentration and clean water was used as a blank control. Each process was repeated for 3 tumblers (3 times). 2 ml of solution was sprayed uniformly to each tumbler by a mini manual sprayer. 10 Nilaparvata lugens were introduced to every sink 6 hours before spraying. Three series of experiments were conducted. The number of killed Nilaparvata lugens was counted after 24 hours to calculate the mortality.

Compound | Mortality (%) (500 ppm) Aphis craccivora (Aphis craccivora) | Mortality (%) (500 ppm) Nilaparvata lugens (Nilaparvata lugens) | mortality at 500 ppm (Aphis craccivora) | mortality at 500 ppm (Nilaparvata lugens)
CCCC1C(C)C([N+](=O)[O-])=C2N(Cc3ccc(Cl)nc3)CCN2C1O (stereo not drawn) [Compound 34] | 95% | 90% |  | 
CCCOC1CC(C)C([N+](=O)[O-])=C2N(Cc3cnc(Cl)s3)CCN21 (stereo not drawn) [Compound 14] | 100% | 100% |  | 
CCC1C(O)N2CCN(Cc3ccc(Cl)nc3)C2=C([N+](=O)[O-])C1(C)C (stereo not drawn) [Compound 37] | 99% | 88% |  | 
O=[N+]([O-])C1=C2N(Cc3ccc(Cl)nc3)CCN2C(O)CC1c1ccccc1 (stereo not drawn) [Compound 38, 1-((6-chloropyridin-3-yl)methyl)-8-nitro-7-phenyl-1,2,3,5,6,7-hexahydroimidazo[1,2-a]pyridin-5-ol] |  |  | 24% | 0%
COC1CC(C)C([N+](=O)[O-])=C2N(CC3CCOC3)CCN21 (stereo not drawn) [Compound 16] | 45% | 67% |  | 
CCOC1CC([N+](=O)[O-])=C2N(Cc3ccc(Cl)nc3)CCN2C1O (stereo not drawn) [Compound 47] | 98% | 91% |  | 
CC1(C)CC(O)N2CCN(Cc3ccc(Cl)nc3)C2=C1[N+](=O)[O-] (stereo not drawn) [Compound 31] | 96% | 100% |  | 
COC1CC(c2ccccc2)C([N+](=O)[O-])=C2N(Cc3ccc(Cl)nc3)CCN21 (stereo not drawn) [Compound 39] | 45% | 0% |  | 
COC1CC(O)N2CCN(Cc3cnc(Cl)s3)C2=C1[N+](=O)[O-] (stereo not drawn) [Compound 44] | 100% | 97% |  | 
CC1CC(O)N2CCN(Cc3ccc(Cl)nc3)C2=C1[N+](=O)[O-] (stereo not drawn) [Compound 1, 1-((6-chloropyridin-3-yl)methyl)-7-methyl-8-nitro-1,2,3,5,6,7-hexahydroimidazo[1,2-a]pyridin-5-ol] |  |  | 100% | 100%
CCCCC1CC(O)N2CCN(Cc3ccc(Cl)nc3)C2=C1[N+](=O)[O-] (stereo not drawn) [Compound 41] | 72% | 50% |  | 
CC1CC(O)N2CCN(Cc3cnc(Cl)s3)C2=C1[N+](=O)[O-] (stereo not drawn) [Compound 12, 1-((2-chlorothiazol-5-yl)methyl)-7-methyl-8-nitro-1,2,3,5,6,7-hexahydroimidazo[1,2-a]pyridin-5-ol] |  |  | 100% | 100%
CCC1CC([N+](=O)[O-])=C2N(Cc3ccc(Cl)nc3)CCN2C1OC (stereo not drawn) [Compound 27] | 92% | 80% |  | 
CCOC1CC(O)N2CCN(Cc3ccc(Cl)nc3)C2=C1[N+](=O)[O-] (stereo not drawn) [Compound 45] | 100% | 89% |  | 
CC1CC(O)N2CCN(CC3CCOC3)C2=C1[N+](=O)[O-] (stereo not drawn) [Compound 15] | 24% | 35% |  | 
CCC1C([N+](=O)[O-])=C2N(Cc3ccc(Cl)nc3)CCN2C(O)C1C (stereo not drawn) [Compound 35] | 100% | 88% |  | 
CCCC1CC(OCC)N2CCN(Cc3ccc(Cl)nc3)C2=C1[N+](=O)[O-] (stereo not drawn) [Compound 25] | 96% | 100% |  | 
COC1CC(C)C([N+](=O)[O-])=C2N(Cc3ccc(Cl)nc3)CCN21 (stereo not drawn) [Compound 2, 1-((6-chloropyridin-3-yl)methyl)-5-methoxy-7-methyl-8-nitro-1,2,3,5,6,7-hexahydroimidazo[1,2-a]pyridine] |  |  | 98% | 100%
CCCCOC1CC(C)C([N+](=O)[O-])=C2N(Cc3ccc(Cl)nc3)CCN21 (stereo not drawn) [Compound 7, 5-butoxy-1-((6-chloropyridin-3-yl)methyl)-7-methyl-8-nitro-1,2,3,5,6,7-hexahydroimidazo[1,2-a]pyridine] |  |  | 80% | 100%
COC1CC([N+](=O)[O-])=C2N(Cc3ccc(Cl)nc3)CCN2C1O (stereo not drawn) [Compound 46, 1-((6-chloropyridin-3-yl)methyl)-6-methoxy-8-nitro-1,2,3,5,6,7-hexahydroimidazo[1,2-a]pyridin-5-ol] |  |  | 100% | 73%
CC1CC([N+](=O)[O-])=C2N(Cc3cnc(Cl)s3)CCN2C1O (stereo not drawn) [Compound 21] | 90% | 100% |  | 
